Source: patent US20200239530A1, “COMPOUNDS AND METHODS OF MODULATING PROTEIN DEGRADATION” (Vividion Therapeutics, Inc., priority 2017, published 2020)
Like-named read-outs stand apart in the source and are kept apart here.

How the values were obtained:
Experiment in all cases: Cysteine liganding, probe competition
Format in all cases: binding
[1] = target: T1, UniProt O15524 (Homo sapiens, UniProt O15524); settings: for inhibition at 500 µM: read-out: percent_inhibition
T1 construct: 200 μL of lysate containing 5 mg/ml proteome was treated with 2 μL of 100× compound stock; endogenous in cells
T1 sequence (O15524 1-211): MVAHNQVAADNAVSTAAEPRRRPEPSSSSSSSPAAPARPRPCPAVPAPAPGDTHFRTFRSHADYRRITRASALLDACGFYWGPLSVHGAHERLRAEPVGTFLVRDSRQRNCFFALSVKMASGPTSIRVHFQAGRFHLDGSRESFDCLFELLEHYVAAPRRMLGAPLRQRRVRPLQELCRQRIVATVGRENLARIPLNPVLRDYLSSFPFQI
From the text: (§1) The following 96-well sample prep protocol was used for sample preparation.

[2] = target: T2, UniProt O60260 (Homo sapiens, UniProt O60260)
T2 construct: 200 μL of lysate containing 5 mg/ml proteome was treated with 2 μL of 100× compound stock; endogenous in cells
T2 sequence (O60260 1-465): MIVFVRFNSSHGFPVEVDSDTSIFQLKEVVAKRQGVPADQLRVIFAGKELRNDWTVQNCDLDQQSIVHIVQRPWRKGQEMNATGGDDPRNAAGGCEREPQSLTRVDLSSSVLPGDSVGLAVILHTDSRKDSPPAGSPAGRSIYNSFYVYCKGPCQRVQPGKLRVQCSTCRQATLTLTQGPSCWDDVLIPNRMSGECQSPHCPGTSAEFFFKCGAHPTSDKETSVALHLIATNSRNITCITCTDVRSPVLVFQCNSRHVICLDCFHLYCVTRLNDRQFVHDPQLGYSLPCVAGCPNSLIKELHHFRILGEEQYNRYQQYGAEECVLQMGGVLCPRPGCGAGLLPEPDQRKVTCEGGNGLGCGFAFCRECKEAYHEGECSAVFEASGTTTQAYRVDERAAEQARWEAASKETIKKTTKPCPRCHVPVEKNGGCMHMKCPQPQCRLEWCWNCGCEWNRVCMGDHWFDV
From the text: as §1

[3] = target: T3, UniProt Q68DV7 (Homo sapiens, UniProt Q68DV7)
T3 construct: 200 μL of lysate containing 5 mg/ml proteome was treated with 2 μL of 100× compound stock; endogenous in cells
T3 sequence (Q68DV7 24-783): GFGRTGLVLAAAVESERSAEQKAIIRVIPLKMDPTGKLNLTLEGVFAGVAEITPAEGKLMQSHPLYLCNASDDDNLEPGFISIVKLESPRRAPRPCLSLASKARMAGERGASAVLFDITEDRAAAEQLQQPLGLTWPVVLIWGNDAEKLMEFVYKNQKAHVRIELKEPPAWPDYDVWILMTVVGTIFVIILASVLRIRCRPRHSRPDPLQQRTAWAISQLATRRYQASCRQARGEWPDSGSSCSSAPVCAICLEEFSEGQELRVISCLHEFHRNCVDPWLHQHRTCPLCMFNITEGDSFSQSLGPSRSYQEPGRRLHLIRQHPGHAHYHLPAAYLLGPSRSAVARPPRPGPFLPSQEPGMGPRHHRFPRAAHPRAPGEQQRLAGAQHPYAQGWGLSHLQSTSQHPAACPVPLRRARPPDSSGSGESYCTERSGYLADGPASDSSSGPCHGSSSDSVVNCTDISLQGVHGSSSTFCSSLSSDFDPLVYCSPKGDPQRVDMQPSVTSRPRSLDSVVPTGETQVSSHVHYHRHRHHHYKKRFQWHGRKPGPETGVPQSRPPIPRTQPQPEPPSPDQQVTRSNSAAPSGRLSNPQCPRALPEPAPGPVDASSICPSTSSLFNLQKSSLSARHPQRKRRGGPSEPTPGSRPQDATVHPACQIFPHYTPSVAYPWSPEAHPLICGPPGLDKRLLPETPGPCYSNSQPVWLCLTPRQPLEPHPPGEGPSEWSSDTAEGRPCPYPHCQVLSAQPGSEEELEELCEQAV
From the text: as §1

[4] = target: T4, UniProt Q6ZN04 (Homo sapiens, UniProt Q6ZN04); settings: for inhibition at 500 µM: read-out: percent inhibition
T4 construct: Cells were resuspended in cold PBS on ice and sonicated with a probe sonicator to achieve lysis; endogenous in cells
T4 sequence (Q6ZN04 1-569): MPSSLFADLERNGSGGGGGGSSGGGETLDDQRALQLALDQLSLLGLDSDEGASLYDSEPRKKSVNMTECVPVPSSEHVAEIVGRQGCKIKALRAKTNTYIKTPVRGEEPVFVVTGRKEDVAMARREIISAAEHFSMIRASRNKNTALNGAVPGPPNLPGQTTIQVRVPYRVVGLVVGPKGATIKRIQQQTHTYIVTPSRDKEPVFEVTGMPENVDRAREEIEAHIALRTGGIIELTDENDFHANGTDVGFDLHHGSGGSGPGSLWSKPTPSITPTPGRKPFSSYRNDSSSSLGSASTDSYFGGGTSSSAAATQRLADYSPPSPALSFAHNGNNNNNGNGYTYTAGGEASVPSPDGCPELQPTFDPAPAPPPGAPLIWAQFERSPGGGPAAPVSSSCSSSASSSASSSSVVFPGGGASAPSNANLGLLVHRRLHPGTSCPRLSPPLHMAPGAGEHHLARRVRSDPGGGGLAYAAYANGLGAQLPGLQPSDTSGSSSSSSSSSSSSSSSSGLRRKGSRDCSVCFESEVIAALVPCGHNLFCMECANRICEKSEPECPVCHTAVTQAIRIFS
From the text: as §1

[5] = target: T5, UniProt Q86WC4 (Homo sapiens, UniProt Q86WC4)
T5 construct: Cells were resuspended in cold PBS on ice and sonicated with a probe sonicator to achieve lysis; endogenous in cells
T5 sequence (Q86WC4 32-334): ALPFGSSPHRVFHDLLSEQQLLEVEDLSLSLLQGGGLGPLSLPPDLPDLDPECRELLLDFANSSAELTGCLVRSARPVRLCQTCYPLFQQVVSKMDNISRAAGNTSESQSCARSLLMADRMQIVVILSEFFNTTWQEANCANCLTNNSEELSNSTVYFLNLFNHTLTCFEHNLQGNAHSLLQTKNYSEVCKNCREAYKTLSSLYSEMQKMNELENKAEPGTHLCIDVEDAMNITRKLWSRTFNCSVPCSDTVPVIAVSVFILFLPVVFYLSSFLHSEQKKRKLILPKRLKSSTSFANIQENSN
From the text: as §1

[6] = read-out: KB02_500 uM_percent_inhibition
[7] = 500 uM, read-out: percent_inhibition
[8] = read-out: KB05_500 uM_percent_inhibition

Structure (SMILES)	inhibition at 500 µM [1] [%]	inhibition at 500 µM [2, 6] [%]	percent_inhibition ([3]; 100 uM) [%]	inhibition at 100 µM ([3]; 100 uM, read-out: percent_inhibition) [%]	inhibition at 500 µM [3, 7] [%]	inhibition at 500 µM [4] [%]	inhibition at 500 µM [5, 6] [%]	inhibition at 500 µM [2, 8] [%]	percent_inhibition ([3]; 500 uM) [%]	inhibition at 500 µM [5, 8] [%]	percent_inhibition ([1]; 500 uM) [%]	KB03_500 uM_percent_inhibition ([2]; 500 uM) [%]	percent inhibition ([4]; 500 uM) [%]	KB03_500 uM_percent_inhibition ([5]; 500 uM) [%]
COc1ccc2c(c1)CCCN2C(=O)CCl [KB02]	38	92	21	13	41	51	68							
C=CC(=O)N(c1ccccc1)c1ccc(Br)cc1 [KB05]	56				42	51		93	40	66				
O=C(CCl)Nc1cc(C(F)(F)F)cc(C(F)(F)F)c1 [KBO3]			7								35	91	28	58
